Paper PMC4627230, “Identification of TAX2 peptide as a new unpredicted anti-cancer agent” (Oncotarget, 2015)

Tests used:
[1] = test system: immobilized TSP-1 (thrombospondin from human platelets); experiment: ELISA binding of biotin-labeled peptides to immobilized TSP-1; settings: biotin-labeled peptide 10 μg/mL, 3 h, room temperature, 0.5% BSA; absorbance 450 nm; n = 3 in triplicate
Procedure: Microtiter plates (Nunc, ThermoFisher Scientific, Courtaboeuf, France) were coated overnight at 4°C with 0.5 μg TSP-1 in sodium carbonate-bicarbonate (BupH) buffer (Thermo Fisher Scientific). Plates were washed with PBS 0.1% BSA (Sigma-Aldrich) and non-specific sites were saturated during 30 min using 1% (w/v) BSA in BupH buffer. Biotin-labeled peptide (10 μg/mL, determined after dose-response assay from 0.01 to 100 μg/mL) was added in buffer containing 0.5% (w/v) BSA and incubated for 3 h at room temperature. Non-labeled peptide (0.001 to 5 mg/mL) was used as selective competitor. Plates were washed with PBS containing 0.1% (w/v) BSA and treated for 30 min with mouse anti-biotin antibody. Bound antibody was quantified using the mouse IgG Elite Vectastain ABC kit (Vector Laboratories) followed by incubation with 1-Step Turbo TMB substrate as a chromogen (ThermoFisher Scientific). The reaction was stopped with 0.5 M H2SO4 and absorbance was read at 450 nm.

TSP-1 binding to LRP-1 = experiment: Co-immunoprecipitation TSP-1 with LRP-1; type: cell-based, human; settings: HUVECs, 100 μM; total protein lysates
Procedure: Protein lysates prepared in ice-cold lysis buffer or conditioned media were subjected to immunoprecipitation assay using the Pierce Co-IP kit (Thermo Fisher Scientific) according to the manufacturer's protocol. 10 μg of antibody (anti CD47, anti-CD36, anti-FGF2, anti-VEGF, anti-β1 integrin and anti-LRP1 heavy chain) or non-specific IgGs were incubated with the delivered resin and covalently coupled. The antibody-coupled resin was incubated with whole HUVEC protein lysate overnight at 4°C under gentle agitation (no cross-linker was used to stabilize protein complexes before HUVEC lysis). Then the resin was washed and the protein complexes bound to the antibody were eluted. Immunoprecipitated protein complexes were solubilized under denaturing and reducing conditions, heated to 100°C for 5 min and analyzed by immunoblotting as described above. […]
receptors. HUVECs were treated with TAX2 (100 μM) or scrambled peptide (Ctrl, 100 μM). FGF-2 and VEGF were immunoprecipitated from conditioned media using anti-FGF-2 (clone C-18) and anti-VEGF (clone C-1), respectively. β1 integrin and LRP-1 were immunoprecipitated from total protein lysates using anti-β1 integrin (clone BV7) and anti-LRP-1 heavy chain (clone 8G1), respectively. […] Histogram represents the quantification of relative ligand-bound TSP-1 under TAX2 treatment as compared to control. […]

[2] = test system: cGMP production by endothelial cells (HUVECs); experiment: Intracellular cGMP after NO stimulation; type: cell-based, human; settings: 100 μM for 15 min, then 10 μM DEA-NONOate 10 min, 1 mM IBMX, n = 3 in triplicate, p < 0.05
Procedure: HUVECs (1 × 10^4 per well) were grown over 24 h in 96-well plates containing EGM-2 full growth medium and then serum-starved in EBM-2 containing 0.1% (v/v) BSA over additional 24 h. Cells were then pre-treated during 15 min with 100 μM TAX2 in EBM-2 without additives plus 0.1% (v/v) BSA before treatment with NO donor in presence of 1 mM IBMX as a phosphodiesterases inhibitor. After 10 min, intracellular cGMP levels were determined according to the manufacturer's instructions using an enzyme immunoassay kit (Amersham Biosciences).
Supplementary Figure S2: TAX2 inhibits intracellular cGMP production by endothelial cells under NO stimulation. HUVECs (1 × 10^4 per well) were seeded in 96-well plates, maintained in EGM-2 growth medium for 24 h, and then serum-starved for an additional 24 h in EBM-2 containing 0.1% (v/v) BSA. Endothelial cells were then pre-treated with 100 μM TAX2 for 15 min before addition of 10 μM DEA-NONOate. After 10 min, intracellular cGMP was quantified as described in Material & Methods. Results are expressed as percent compared to control (n = 3, each performed in triplicate; t test; * p < 0.05).
(also on this page, place not known: www.impactjournals.com/oncotarget/ Oncotarget, Materials 2015 Supplementary *p) […]

CEVSQLLKGDAC (disulfide) [TAX2, CD47-derived cyclic disulfide dodecapeptide …]
binding to immobilized TSP-1 [1]: binds to immobilized TSP-1 | TSP-1 binding to LRP-1 (TSP-1 binding to LRP-1): does not affect | decrease of cGMP production after NO stimulation [2]: around 25%
